{"source": "ChEMBL document CHEMBL4330071", "about": "(Eur J Med Chem, 2019)", "key": {"[1]": {"biological_target": "Tyrosine-protein kinase JAK2 (Homo sapiens) (UniProt O60674)", "assay": "Inhibition of human JAK2 assessed as residual activity at 10 uM using poly[Glu:Tyr] (4:1) as substrate preincubated for 20 mins followed by [gamma-33P]-ATP addition and measured after 120 mins by Hotspot assay relative to control"}, "[2]": {"biological_target": "CDK1/Cyclin A (Homo sapiens) (UniProt P06493+P20248)", "assay": "Inhibition of human CDK1/Cyclin-A assessed as residual activity at 10 uM using Histone H1 as substrate preincubated for 20 mins followed by [gamma-33P]-ATP addition and measured after 120 mins by Hotspot assay relative to control", "format": "protein-complex assay"}, "[3]": {"biological_target": "Platelet-derived growth factor receptor alpha (Homo sapiens, UniProt P16234)", "assay": "Inhibition of human PDGFRalpha using poly[Glu:Tyr] (4:1) as substrate preincubated for 20 mins followed by [gamma-33P]-ATP addition and measured after 120 mins by Hotspot assay"}, "MV4-11 [4]": {"tested_on": "MV4-11", "assay": "Induction of apoptosis in human MV4-11 cells assessed as early apoptotic cells at 0.5 uM after 24 hrs by Annexin V-FITC/propidium iodide staining based flow cytometric analysis (reference value: 3.39%)", "format": "functional"}, "[5]": {"biological_target": "Macrophage colony-stimulating factor 1 receptor (Homo sapiens, UniProt P07333)", "sequence (P07333 whole entry)": "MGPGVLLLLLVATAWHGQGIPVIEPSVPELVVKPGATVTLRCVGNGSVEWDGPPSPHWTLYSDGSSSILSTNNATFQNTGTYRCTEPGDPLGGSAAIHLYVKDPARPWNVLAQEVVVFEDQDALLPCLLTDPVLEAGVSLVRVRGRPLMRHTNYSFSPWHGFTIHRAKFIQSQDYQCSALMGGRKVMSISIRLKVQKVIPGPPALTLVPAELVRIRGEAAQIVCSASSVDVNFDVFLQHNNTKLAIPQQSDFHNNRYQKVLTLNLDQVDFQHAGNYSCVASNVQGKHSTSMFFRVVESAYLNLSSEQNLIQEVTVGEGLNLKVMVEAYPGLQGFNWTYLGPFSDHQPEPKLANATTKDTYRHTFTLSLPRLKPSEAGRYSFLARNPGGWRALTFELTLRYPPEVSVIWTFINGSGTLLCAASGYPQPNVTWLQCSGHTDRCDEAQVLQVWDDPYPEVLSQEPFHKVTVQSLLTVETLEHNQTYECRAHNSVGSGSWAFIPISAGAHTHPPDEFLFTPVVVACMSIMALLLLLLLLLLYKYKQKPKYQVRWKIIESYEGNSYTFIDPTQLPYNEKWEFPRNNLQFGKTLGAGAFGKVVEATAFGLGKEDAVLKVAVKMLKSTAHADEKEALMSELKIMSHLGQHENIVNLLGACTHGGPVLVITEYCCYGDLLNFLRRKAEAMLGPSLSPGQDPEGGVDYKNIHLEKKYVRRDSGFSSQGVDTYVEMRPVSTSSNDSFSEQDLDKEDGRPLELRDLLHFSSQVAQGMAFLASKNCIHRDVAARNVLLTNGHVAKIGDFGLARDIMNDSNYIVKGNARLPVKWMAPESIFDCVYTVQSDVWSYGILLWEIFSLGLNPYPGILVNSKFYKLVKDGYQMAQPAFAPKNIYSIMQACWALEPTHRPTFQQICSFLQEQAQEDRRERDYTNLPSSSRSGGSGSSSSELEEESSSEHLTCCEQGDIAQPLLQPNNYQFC", "assay": "Inhibition of human FMS assessed as residual activity at 10 uM using poly[Glu:Tyr] (4:1) as substrate preincubated for 20 mins followed by [gamma-33P]-ATP addition and measured after 120 mins by Hotspot assay relative to control"}, "[6]": {"biological_target": "Vascular endothelial growth factor receptor 2 (Homo sapiens, UniProt P35968)", "sequence (P35968 whole entry)": "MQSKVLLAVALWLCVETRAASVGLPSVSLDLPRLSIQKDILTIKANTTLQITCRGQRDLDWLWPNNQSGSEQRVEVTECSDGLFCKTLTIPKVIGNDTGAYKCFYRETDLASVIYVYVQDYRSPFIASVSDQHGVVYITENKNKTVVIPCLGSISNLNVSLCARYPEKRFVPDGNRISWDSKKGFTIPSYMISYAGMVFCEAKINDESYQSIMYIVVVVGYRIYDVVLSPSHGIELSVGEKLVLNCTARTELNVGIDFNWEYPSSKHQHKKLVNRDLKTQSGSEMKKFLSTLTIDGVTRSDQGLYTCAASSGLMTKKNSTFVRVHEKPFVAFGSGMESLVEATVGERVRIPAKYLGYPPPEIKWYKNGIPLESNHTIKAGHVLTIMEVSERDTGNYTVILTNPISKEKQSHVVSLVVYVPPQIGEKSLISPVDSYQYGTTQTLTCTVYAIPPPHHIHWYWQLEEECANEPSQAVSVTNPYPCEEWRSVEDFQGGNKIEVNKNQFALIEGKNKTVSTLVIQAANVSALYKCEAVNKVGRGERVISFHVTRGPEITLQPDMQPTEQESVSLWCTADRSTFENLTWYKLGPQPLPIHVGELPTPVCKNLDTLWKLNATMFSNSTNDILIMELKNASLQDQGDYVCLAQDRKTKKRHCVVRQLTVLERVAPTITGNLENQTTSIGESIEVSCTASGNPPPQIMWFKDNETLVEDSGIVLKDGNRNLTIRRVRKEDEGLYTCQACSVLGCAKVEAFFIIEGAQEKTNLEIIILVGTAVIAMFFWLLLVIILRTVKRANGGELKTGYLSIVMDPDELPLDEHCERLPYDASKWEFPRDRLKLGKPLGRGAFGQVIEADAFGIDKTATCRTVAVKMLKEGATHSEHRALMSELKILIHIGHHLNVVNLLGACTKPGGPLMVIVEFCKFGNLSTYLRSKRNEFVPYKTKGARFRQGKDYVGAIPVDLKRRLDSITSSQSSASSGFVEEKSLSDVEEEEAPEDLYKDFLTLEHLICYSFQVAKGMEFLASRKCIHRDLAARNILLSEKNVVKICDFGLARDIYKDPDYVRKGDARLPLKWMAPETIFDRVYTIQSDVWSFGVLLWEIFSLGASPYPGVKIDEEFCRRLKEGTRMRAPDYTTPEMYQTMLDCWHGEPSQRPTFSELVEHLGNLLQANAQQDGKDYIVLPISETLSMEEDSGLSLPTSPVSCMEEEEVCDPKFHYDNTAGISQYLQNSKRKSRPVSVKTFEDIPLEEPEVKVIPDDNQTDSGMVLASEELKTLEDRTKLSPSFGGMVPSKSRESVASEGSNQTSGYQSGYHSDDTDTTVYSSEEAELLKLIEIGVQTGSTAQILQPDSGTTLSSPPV", "assay": "Inhibition of human KDR assessed as residual activity at 10 uM using poly[Glu:Tyr] (4:1) as substrate preincubated for 20 mins followed by [gamma-33P]-ATP addition and measured after 120 mins by Hotspot assay relative to control"}, "[7]": {"biological_target": "Calcium/calmodulin-dependent protein kinase type 1 (Homo sapiens) (UniProt Q14012)", "assay": "Inhibition of human CAMK1A assessed as residual activity at 10 uM using KKALRRQETVDAL as substrate preincubated for 20 mins followed by [gamma-33P]-ATP addition and measured after 120 mins by Hotspot assay relative to control"}, "[8]": {"biological_target": "Tyrosine-protein kinase ABL1 (Homo sapiens, UniProt P00519)", "sequence (P00519 whole entry, the tested form may be a part)": "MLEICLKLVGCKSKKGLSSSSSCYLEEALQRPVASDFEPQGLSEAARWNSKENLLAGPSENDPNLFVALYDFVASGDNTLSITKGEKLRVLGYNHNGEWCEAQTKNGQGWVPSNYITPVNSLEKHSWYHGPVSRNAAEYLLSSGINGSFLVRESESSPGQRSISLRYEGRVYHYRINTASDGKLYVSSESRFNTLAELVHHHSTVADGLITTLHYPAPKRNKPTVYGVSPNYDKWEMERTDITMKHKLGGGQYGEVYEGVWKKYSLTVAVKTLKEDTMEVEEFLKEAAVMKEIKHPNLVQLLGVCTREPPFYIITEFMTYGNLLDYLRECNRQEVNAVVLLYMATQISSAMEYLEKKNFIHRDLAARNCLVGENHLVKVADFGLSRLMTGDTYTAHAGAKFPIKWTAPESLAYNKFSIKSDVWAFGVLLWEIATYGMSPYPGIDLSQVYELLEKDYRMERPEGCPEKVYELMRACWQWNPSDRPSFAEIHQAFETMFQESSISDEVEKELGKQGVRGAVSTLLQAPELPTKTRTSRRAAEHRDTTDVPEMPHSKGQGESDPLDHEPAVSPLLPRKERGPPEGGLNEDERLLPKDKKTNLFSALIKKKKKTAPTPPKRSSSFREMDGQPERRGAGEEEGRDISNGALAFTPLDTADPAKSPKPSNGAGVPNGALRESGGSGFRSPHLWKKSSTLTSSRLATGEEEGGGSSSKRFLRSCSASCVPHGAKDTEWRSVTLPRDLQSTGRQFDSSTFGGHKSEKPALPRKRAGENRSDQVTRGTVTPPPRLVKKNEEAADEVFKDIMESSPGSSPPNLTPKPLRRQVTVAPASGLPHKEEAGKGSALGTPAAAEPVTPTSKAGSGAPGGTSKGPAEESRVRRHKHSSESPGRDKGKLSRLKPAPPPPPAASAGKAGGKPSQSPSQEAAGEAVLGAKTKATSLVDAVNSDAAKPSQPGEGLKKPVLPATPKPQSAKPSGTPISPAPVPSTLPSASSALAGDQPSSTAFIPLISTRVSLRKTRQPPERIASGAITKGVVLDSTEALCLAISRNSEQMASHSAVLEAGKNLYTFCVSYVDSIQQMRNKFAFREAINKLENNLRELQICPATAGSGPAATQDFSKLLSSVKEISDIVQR", "assay": "Binding affinity to wild-type human phosphorylated ABL1 (S229 to K512 residues) expressed in mammalian expression system after 60 mins by Kinomescan method"}, "[9]": {"biological_target": "Serine/threonine-protein kinase Chk1 (Homo sapiens, UniProt O14757)", "sequence (O14757 whole entry)": "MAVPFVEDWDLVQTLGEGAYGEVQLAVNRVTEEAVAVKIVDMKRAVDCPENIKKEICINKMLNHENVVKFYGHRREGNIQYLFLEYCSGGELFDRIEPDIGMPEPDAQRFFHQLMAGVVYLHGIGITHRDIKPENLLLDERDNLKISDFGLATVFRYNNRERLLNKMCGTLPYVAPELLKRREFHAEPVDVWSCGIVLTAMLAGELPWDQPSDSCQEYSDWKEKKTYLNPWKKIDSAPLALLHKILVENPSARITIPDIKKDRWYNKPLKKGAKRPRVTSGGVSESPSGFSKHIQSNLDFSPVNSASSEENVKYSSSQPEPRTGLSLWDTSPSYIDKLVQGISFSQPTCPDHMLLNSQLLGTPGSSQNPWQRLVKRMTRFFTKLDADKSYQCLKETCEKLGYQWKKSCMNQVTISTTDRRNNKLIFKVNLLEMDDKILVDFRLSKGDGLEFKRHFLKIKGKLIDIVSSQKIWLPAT", "assay": "Inhibition of human CHK1 using KKKVSRSGLYRSPSMPENLNRPR as substrate preincubated for 20 mins followed by [gamma-33P]-ATP addition and measured after 120 mins by Hotspot assay"}, "MV4-11 [10]": {"tested_on": "MV4-11", "assay": "Cell cycle arrest in human MV4-11 cells assessed as accumulation at G2/M phase after 24 hrs by ribonuclease/propidium iodide staining based flow cytometric analysis", "format": "functional"}, "[11]": {"biological_target": "Glycogen synthase kinase-3 beta (Homo sapiens) (UniProt P49841)", "assay": "Inhibition of human GSK3B assessed as residual activity at 10 uM using YRRAAVPPSPSLSRHSSPHQ(pS)EDEEE as substrate preincubated for 20 mins followed by [gamma-33P]-ATP addition and measured after 120 mins by Hotspot assay relative to control"}, "[12]": {"biological_target": "CDC7/DBF4 (Cell division cycle 7-related protein kinase/Activator of S phase kinase) (Homo sapiens) (UniProt Q9UBU7+O00311)", "assay": "Inhibition of human CDC7/DBF4 assessed as residual activity at 10 uM using KTFCGTPEYLAPEVRREPRILSEEEQEMFRDFDYIADWC as substrate preincubated for 20 mins followed by [gamma-33P]-ATP addition and measured after 120 mins by Hotspot assay relative to control", "format": "protein-complex assay"}, "MV4-11 [13]": {"tested_on": "MV4-11", "assay": "Induction of apoptosis in human MV4-11 cells assessed as viable cells at 0.02 uM after 24 hrs by Annexin V-FITC/propidium iodide staining based flow cytometric analysis (reference value: 95.19%)", "format": "functional", "settings": "MV4-11, 24 h, read-out: Activity"}, "CDK6/cyclin D1": {"biological_target": "CDK6/cyclin D1 (Homo sapiens, UniProt Q00534)", "assay": "Inhibition of human CDK6/cyclin-D1 using RB protein as substrate preincubated for 20 mins followed by [gamma-33P]-ATP addition and measured after 120 mins by Hotspot assay", "format": "protein-complex assay"}, "MV4-11 [14]": {"tested_on": "MV4-11", "assay": "Induction of apoptosis in human MV4-11 cells assessed as late apoptotic cells at 0.2 uM after 24 hrs by Annexin V-FITC/propidium iodide staining based flow cytometric analysis (reference value: 1.42%)", "format": "functional"}, "[15]": {"biological_target": "Mitogen-activated protein kinase 1 (Homo sapiens) (UniProt P28482)", "assay": "Inhibition of human ERK2 assessed as residual activity at 10 uM using MBP as substrate preincubated for 20 mins followed by [gamma-33P]-ATP addition and measured after 120 mins by Hotspot assay relative to control"}, "[16]": {"assay": "Half life in human liver microsomes at 1 uM after 5 to 60 mins in presence of NADPH by LC-MS/MS analysis", "format": "ADME, Microsome"}, "[17]": {"biological_target": "Mast/stem cell growth factor receptor Kit (Homo sapiens, UniProt P10721)", "assay": "Binding affinity to wild-type human partial length autoinhibited KIT (Y545 to D952 residues) expressed in mammalian expression system after 60 mins by Kinomescan method"}, "[18]": {"biological_target": "Mitogen-activated protein kinase 8 (Homo sapiens) (UniProt P45983)", "sequence (P45983 whole entry)": "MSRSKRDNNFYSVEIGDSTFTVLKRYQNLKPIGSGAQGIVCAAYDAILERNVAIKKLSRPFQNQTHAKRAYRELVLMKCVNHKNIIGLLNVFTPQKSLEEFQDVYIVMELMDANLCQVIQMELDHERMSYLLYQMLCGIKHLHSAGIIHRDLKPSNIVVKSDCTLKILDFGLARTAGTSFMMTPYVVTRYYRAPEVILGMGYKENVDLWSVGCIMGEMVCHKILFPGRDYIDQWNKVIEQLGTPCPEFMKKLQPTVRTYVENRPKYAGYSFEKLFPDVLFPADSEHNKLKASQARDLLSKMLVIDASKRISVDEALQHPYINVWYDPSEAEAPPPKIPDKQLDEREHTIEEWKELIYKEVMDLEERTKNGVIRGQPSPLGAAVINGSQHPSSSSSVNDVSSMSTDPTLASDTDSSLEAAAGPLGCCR", "assay": "Inhibition of human JNK1 assessed as residual activity at 10 uM using ATF2 as substrate preincubated for 20 mins followed by [gamma-33P]-ATP addition and measured after 120 mins by Hotspot assay relative to control"}, "[19]": {"biological_target": "Serine/threonine-protein kinase Nek2 (Homo sapiens) (UniProt P51955)", "assay": "Inhibition of human NEK2 assessed as residual activity at 10 uM using MBP as substrate preincubated for 20 mins followed by [gamma-33P]-ATP addition and measured after 120 mins by Hotspot assay relative to control"}, "[20]": {"biological_target": "Tyrosine-protein kinase ABL1 (Homo sapiens, UniProt P00519, F317L)", "sequence (P00519 whole entry F317L, the tested form may be a part)": "as the sequence (P00519 whole entry, the tested form may be a part) above, with F317L counted along it", "assay": "Binding affinity to human phosphorylated ABL1 F317L mutant (S229 to K512 residues) expressed in mammalian expression system after 60 mins by Kinomescan method"}, "MV4-11 [21]": {"tested_on": "MV4-11", "assay": "Induction of apoptosis in human MV4-11 cells assessed as early apoptotic cells at 0.1 uM after 24 hrs by Annexin V-FITC/propidium iodide staining based flow cytometric analysis (reference value: 3.39%)", "format": "functional"}, "[22]": {"biological_target": "CDK2/Cyclin A2 (Homo sapiens) (UniProt P24941+P20248)", "assay": "Inhibition of human CDK2/cyclin-A assessed as residual activity at 10 uM using histone H1 as substrate preincubated for 20 mins followed by [gamma-33P]-ATP addition and measured after 120 mins by Hotspot assay relative to control", "format": "protein-complex assay"}, "MV4-11 [23]": {"tested_on": "MV4-11", "assay": "Induction of apoptosis in human MV4-11 cells assessed as late apoptotic cells at 0.05 uM after 24 hrs by Annexin V-FITC/propidium iodide staining based flow cytometric analysis (reference value: 1.42%)", "format": "functional"}, "[24]": {"biological_target": "Cyclin-dependent kinase 4/cyclin D1 (Homo sapiens, UniProt P11802)", "sequence (P11802 whole entry)": "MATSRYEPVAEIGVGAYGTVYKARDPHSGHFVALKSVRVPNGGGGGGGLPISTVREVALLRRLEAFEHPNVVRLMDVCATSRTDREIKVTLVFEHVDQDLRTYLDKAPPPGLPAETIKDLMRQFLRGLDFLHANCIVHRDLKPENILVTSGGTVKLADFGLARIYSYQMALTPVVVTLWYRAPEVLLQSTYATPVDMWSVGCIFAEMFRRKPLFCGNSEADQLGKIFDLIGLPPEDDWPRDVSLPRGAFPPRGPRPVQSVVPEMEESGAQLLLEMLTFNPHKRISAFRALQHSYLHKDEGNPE", "sequence (P24385 whole entry, further chain)": "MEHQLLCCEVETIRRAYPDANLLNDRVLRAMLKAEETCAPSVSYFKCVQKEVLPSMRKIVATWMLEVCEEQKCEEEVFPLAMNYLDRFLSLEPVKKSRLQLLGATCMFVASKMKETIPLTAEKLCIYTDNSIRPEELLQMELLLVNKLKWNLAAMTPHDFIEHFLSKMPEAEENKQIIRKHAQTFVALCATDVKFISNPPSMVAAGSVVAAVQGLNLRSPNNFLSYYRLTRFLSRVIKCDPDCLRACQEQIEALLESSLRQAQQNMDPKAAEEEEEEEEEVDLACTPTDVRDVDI", "assay": "Inhibition of human CDK4/cyclin-D1 using RB protein as substrate preincubated for 20 mins followed by [gamma-33P]-ATP addition and measured after 120 mins by Hotspot assay", "format": "protein-complex assay"}}, "data": [{"molecule": "CN1CCC(Nc2ccc(C(=O)Nc3cc(-c4cc(C#N)cs4)n[nH]3)cc2)CC1", "values": [{"measurement": "Activity", "setting": "[1]", "value": 80.7, "unit": "%"}, {"measurement": "Activity", "setting": "[2]", "value": 74.5, "unit": "%"}, {"measurement": "IC50", "setting": "[3]", "value": 3640, "unit": "nM"}, {"measurement": "Activity", "setting": "MV4-11 [4]", "value": 28.65, "unit": "%"}, {"measurement": "Activity", "setting": "[5]", "value": 4.66, "unit": "%"}, {"measurement": "Activity", "setting": "[6]", "value": 34, "unit": "%"}, {"measurement": "Activity", "setting": "[7]", "value": 48.5, "unit": "%"}, {"measurement": "Kd", "setting": "[8]", "value": 520, "unit": "nM"}, {"measurement": "IC50", "setting": "[9]; read-out: IC50", "value": 1530, "unit": "nM"}, {"measurement": "IC50", "setting": "[9]; read-out: pIC50 (converted)", "value": 1580, "unit": "nM"}, {"measurement": "Activity", "setting": "MV4-11 [10]", "value": "Dose-dependent effect"}, {"measurement": "Activity", "setting": "[11]", "value": 72.8, "unit": "%"}, {"measurement": "Activity", "setting": "[12]", "value": 101, "unit": "%"}, {"measurement": "viability at 0.02 µM", "setting": "MV4-11 [13]", "value": 68.6, "unit": "%"}, {"measurement": "IC50", "setting": "CDK6/cyclin D1", "value": 3060, "unit": "nM"}, {"measurement": "Activity", "setting": "MV4-11 [14]", "value": 21.77, "unit": "%"}, {"measurement": "Activity", "setting": "[15]", "value": 102, "unit": "%"}, {"measurement": "half-life at 1 µM", "setting": "[16]", "value": 1.03, "unit": "h"}, {"measurement": "Kd", "setting": "[17]", "value": 72, "unit": "nM"}, {"measurement": "Activity", "setting": "[18]", "value": 89.6, "unit": "%"}, {"measurement": "Activity", "setting": "[19]", "value": 11, "unit": "%"}, {"measurement": "Kd", "setting": "[20]", "value": 460, "unit": "nM"}, {"measurement": "Activity", "setting": "MV4-11 [21]", "value": 24.27, "unit": "%"}, {"measurement": "Activity", "setting": "[22]", "value": 66.8, "unit": "%"}, {"measurement": "Activity", "setting": "MV4-11 [23]", "value": 14.8, "unit": "%"}, {"measurement": "IC50", "setting": "[24]; read-out: IC50", "value": "> 10000", "unit": "nM"}, {"measurement": "IC50", "setting": "[24]; read-out: pIC50 (converted)", "value": 10000, "unit": "nM"}]}]}
